The source of these data is article PMC7281280, “Is the Way to Fight Cancer Paved with Gold? Metal-Based Carbene Complexes with Multiple and Fascinating Biological Features” (Pharmaceuticals, 2020).

The subject of one experiment is HeLa cells. Kind of experiment: Immunofluorescence of microtubules, HeLa. In kind it is cell-based, human. Particulars: at IC50 value, 24 h. As to the method:
Cells were grown on glass coverslips in full media, then serum-deprived for 24 h and exposed to compounds for 24 h (concentration equal to its IC50 value). Then, the cells after PBS-washed, were fixed with cold methanol (15 min/−20 °C) and incubated with primary antibody, diluted in blocking solution (4 °C/overnight), as previously described. The mouse anti-β-Actin (69879) and the rabbit anti-β tubulin (9104) were purchased from Santa Cruz Biotechnology and used at 1:100 dilution. Coverslips were then washed 3 times with PBS, then fixed cells were incubated with the secondary antibody Alexa Fluor® 568 conjugate goat-anti-mouse and Alexa Fluor® 488 conjugate goat-anti-rabbit (1:500, Thermo Fisher Scientific, Waltham, MA, USA). Nuclei were stained using DAPI (Sigma–Aldrich, Mila, Italy) for 10 min at a concentration of 0.2 μg/mL then washed 3 times with PBS. Fluorescence was detected using a fluorescence microscope (Leica DM 6000). LAS-X software was used to acquire and process all images.
Figure 6 Immunofluorescence studies. HeLa cells were treated with AuL4, Vinblastine, Paclitaxel (used at their IC50 values) or with a vehicle (CTRL) for 24 h. After treatment, the cells were methanol fixed, incubated with primary and secondary antibodies, stained with DAPI and observed and imaged under the inverted fluorescence microscope at 20× magnification (see Materials and methods). […] Panels A: DAPI, excitation/emission wavelength 350 nm/460 nm; panels B: β-tubulin (Alexa Fluor® 488) excitation/emission wavelength 490 nm/515 nm; panels C show a merge. Representative fields are shown.

The test system of a further experiment is tubulin. Kind of experiment: In vitro tubulin-polymerization assay (turbidity at 350 nm). It counts as biochemical. The conditions noted are these: 10 µM. As to the method:
Tubulin-polymerization inihibition was measured using in vitro Tubulin-Polymerization Assay Kit purchased fromEMD Millipore Corporation. Polymerization reactions occur in 70 µL final volumes, of which 60 µL is the 60 µM tubulin in 1 × PB-GTP and 10 µL is the test substance dissolved in 1 × PB-GTP. […] These reactives were combined in 96-well plate on ice. After the plate was transferred into the spectrophotometer pre-warmed at 37 °C and the turbidity variation was measured every 30 s at 350 nm for 90 min. The plate was shaked for 10 s before each measurement. Turbidity (absorbance) readings were used to calculate the extent of polymerization [% inhibition = (1−A350 sample/A350 control) × 100].
Figure 4 Tubulin-polymerization assay. […] Two positive control molecules, Paclitaxel and Vinblastine, were used as tubulin-stabilizing and tubulin-destabilizing agents, respectively. DMSO was used as a negative control. Assembly of tubulin into microtubules was determined by measuring the turbidity at 350 nm for 3600 s at 37 °C. All the compounds were used at a concentration of 10 μM.

The target of experiment [1] is T1, human topoisomerase II (hTopo II) (Homo sapiens, UniProt P11388).
T1 construct: purchased topoGEN, Port Orange, FL, USA
The experiment is described as follows: Human topoisomerase II decatenation assay. It counts as biochemical. Particulars: 1 μM. As to the method: Decatenated and linear kDNA (Figure 8, lanes 1 and 2) are used as markers.
hTopo II decatenation assays were performed in a final volume of […], as reported by Iacopetta et al., using […] of kinetoplast DNA (kDNA) (topoGEN, Port Orange, FL, USA), tested compounds and 3 units of hTopo II (topoGEN, Port Orange, FL, USA). The reaction products were loaded in an agarose gel with EB. At the end, the gel was washed with distilled water and analyzed using a UV transilluminator. The experiment was repeated three times.
Lane 1 and 2, decatenated and linear kDNA, respectively.

Experiment [2] deals with T2, human topoisomerase I (hTopo I) (Homo sapiens, UniProt P11387).
T2 construct: purchased TopoGEN, Port Orange, FL, USA
T2 sequence (P11387 1-765): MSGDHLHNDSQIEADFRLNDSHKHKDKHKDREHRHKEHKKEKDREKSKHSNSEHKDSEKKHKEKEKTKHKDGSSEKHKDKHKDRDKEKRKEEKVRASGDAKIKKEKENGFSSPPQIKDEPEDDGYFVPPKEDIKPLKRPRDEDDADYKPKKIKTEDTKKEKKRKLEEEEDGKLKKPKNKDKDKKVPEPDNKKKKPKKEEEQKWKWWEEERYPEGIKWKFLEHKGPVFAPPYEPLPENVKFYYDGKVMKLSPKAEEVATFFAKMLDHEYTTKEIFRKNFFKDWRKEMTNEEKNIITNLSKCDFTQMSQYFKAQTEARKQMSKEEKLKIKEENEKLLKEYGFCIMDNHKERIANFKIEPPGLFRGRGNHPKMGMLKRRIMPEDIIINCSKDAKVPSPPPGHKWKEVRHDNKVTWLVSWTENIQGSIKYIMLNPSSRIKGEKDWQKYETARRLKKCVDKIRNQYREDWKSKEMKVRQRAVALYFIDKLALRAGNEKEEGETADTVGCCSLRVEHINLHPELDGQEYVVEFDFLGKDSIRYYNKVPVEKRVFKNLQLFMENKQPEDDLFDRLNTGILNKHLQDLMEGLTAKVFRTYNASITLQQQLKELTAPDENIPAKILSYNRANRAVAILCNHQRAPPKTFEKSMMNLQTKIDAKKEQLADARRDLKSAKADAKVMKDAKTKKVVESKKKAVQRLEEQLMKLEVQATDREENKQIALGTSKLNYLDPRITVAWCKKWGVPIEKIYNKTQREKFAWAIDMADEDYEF
The experiment is described as follows: Human topoisomerase I relaxation assay. In kind it is biochemical. The conditions noted are these: 1 μM. As to the method:
Topoisomerases are essential enzymes involved in DNA metabolism, because of their ability to cause temporary DNA strand breakage, and tightly involved, if overexpressed, in cancer development.
hTopo I relaxation assays have been performed in a final volume of […], as reported by Iacopetta et al., incubating […] of supercoiled plasmid pHOT1 in Tris-EDTA (TE) buffer (TopoGEN, Port Orange, FL, USA) with tested compounds and recombinant hTopo I (2 units) (TopoGEN, Port Orange, FL, USA) for 1h at 37 °C. The obtained solution has been loaded in a 1% agarose gel containing 1× Tris-acetate-EDTA (TAE) buffer without ethidium bromide (EB). Agarose gel has been stained using 1× TAE buffer with EB ([…]) for 30 min and after washed with distilled water for 15 min. At the end, it has been visualized by using a ultraviolet (UV) transilluminator. The experiment was performed in triplicate.
Figure 7 hTopoI assay.

T1 sequence (P11388 whole entry): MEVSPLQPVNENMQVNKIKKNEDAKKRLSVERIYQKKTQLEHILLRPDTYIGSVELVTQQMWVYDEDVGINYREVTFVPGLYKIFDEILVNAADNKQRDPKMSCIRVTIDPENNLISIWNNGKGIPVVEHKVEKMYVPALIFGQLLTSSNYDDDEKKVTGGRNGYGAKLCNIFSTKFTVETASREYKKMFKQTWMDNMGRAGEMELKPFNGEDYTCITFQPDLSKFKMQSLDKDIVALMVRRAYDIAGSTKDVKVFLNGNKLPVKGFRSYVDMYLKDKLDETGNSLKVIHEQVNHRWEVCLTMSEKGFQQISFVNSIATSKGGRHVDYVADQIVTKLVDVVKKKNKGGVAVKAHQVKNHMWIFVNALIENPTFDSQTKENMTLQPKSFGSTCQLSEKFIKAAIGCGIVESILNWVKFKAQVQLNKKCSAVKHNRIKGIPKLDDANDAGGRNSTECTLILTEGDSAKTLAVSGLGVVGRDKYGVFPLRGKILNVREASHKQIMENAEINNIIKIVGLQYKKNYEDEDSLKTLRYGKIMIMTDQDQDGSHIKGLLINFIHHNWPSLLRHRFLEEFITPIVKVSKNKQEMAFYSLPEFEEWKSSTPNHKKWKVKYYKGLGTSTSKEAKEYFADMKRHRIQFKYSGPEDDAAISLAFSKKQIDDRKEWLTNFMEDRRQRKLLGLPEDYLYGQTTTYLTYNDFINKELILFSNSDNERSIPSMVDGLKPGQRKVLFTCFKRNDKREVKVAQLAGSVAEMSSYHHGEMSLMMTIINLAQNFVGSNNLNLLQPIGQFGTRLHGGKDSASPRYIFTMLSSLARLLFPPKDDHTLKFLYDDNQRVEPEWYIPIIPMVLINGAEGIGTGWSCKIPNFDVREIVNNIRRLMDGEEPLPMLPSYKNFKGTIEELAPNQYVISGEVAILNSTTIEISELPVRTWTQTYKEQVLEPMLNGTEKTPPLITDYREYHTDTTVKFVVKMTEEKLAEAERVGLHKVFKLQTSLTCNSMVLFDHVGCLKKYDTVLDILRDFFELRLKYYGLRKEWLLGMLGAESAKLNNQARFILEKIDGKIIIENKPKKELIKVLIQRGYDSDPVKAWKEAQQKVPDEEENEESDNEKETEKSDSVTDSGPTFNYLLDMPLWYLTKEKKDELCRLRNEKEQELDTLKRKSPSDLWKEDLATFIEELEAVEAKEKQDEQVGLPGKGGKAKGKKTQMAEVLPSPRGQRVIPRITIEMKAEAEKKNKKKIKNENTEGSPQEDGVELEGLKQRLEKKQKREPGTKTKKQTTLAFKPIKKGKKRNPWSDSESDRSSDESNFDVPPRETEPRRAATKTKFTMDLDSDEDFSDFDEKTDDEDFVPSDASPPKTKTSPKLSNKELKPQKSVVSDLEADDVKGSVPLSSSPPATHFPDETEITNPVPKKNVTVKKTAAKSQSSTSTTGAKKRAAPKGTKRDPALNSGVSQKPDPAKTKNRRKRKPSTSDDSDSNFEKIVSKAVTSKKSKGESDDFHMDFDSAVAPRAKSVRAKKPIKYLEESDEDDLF

With `C[n+]1c(Cl)c(Cl)n(C2CCCC2O)[c]1[Au-][c]1n(C2CCCC2O)c(Cl)c(Cl)[n+]1C.[Cl][Au-][Cl]` (racemic) [AuL4, bis-[4,5-dichloro-(N-methyl-N’(cyclopentane-2ol)-imidazole-2-ylidine)gold(I)]^+[dichloro-gold]^−], in the experiment on HeLa cells, the “effect on microtubule network, HeLa” value was “paclitaxel-like behavior”. Besides, in the experiment with tubulin, the “effect on tubulin-polymerization reaction” value was “seems not to hamper the tubulin-polymerization reaction”. Moreover, the “final optical density value at 350 nm (OD350)” value in the experiment on tubulin (37 °C, vehicle (DMSO) about 0.43) was “slightly higher than that of DMSO reaction”. Further, in experiment [1], the “inhibition of hTopo II decatenation activity” value is reported as “total blockade of hTopoII activity”. Also, the “inhibition of hTopo I supercoil relaxing activity” value in experiment [2] was “totally inhibition”.
